# According to patent US12501899B2, “Mite infestation treatment” (priority 2019, dated 2025):
# Where a name gives a salt, the structure may show the parent alone. Read-outs that look alike come from different tables or passages of the source.
# System: Ixodes ricinus
# Test: Oral acaricidal test on ticks in membrane feeding wells with treated blood
# Type: in vivo
# Conditions: for mortality at 1 ppm / mortality at 10 ppm / mortality at 100 ppm: Ixodes ricinus, po
# Description: A laboratory study was conducted to determine the oral acaricidal properties of three compounds according to the invention (SN0305, SN0306 and SN0307) against Ixodes ricinus. Each compound was tested at 1, 10 and 100 ppm, and compared to a negative control corresponding to solvent alone (0.1% DMSO). Amitraz at 100 ppm was used as a positive control.
# The Ixodes ricinus ticks (nymphs and adults) were placed for 24 hours on a membrane in feeding wells containing blood mixed with the tested compounds. Tick mortality (number of dead, moribund, or unaffected ticks in each well), attachment to the membrane (number of ticks attached/detached in each well), and the behavior (presence or absence of twitches) were examined 1, 3, 6, 12, 24, 48, 72, and 96 hours after the onset of tick exposure to the compounds.
# Ticks (Ixodes ricinus) were collected. Collected adult females were kept separate from the nymphs and both were placed in sterile tubes in a humidity chamber to provide ˜80% humidity and 17° C. Only healthy ticks (females/nymphs) were chosen for the experiment.
# Batches of 12 adults or nymphs were inserted into the feeding wells. After about 24 hours, their attachment was examined with a brush.
# The efficiency of three compounds (SN0305, SN0306 and SN0307), each tested at three concentrations (1, 10, 100 ppm), was compared to the solvent control (0.1% DMSO, Sigma-Aldrich D-5879; Lot 101K0028) and to the positive control (Amitraze at 100 ppm).
# Silicone-coated membranes with a thickness comprised between 110 and 140 μm were used for the construction of the feeding units.
# Feeding units (sterilized acrylic glass tubes) were placed in feeding wells made of sterilized six-well plates.
# 3.1 ml of sterile 10^−3 M ATP-enriched blood was applied to each feeding well. Feeding wells were then inserted into a heated water bath (FIG. 12) and maintained at 37° C.±2° C.
# Stock solutions of 100,000 ppm were prepared and tenth dilutions were carried out in 0.1% DMSO to reach the desired concentrations. After tick attachment (24 hours after placing the ticks in the feeding wells), 3.1 μl of the solutions were added to each feeding well containing 3.1 ml of blood. Blood was changed after 12 hours with fresh supplementation of the compounds to be tested. The ticks were exposed to the product for a total of 24 hours, after which the blood was again changed to fresh, untreated blood.
# Tick mortality (number of dead, moribund or unaffected ticks in each well), attachment (number of attached/detached ticks in each well) and behavior (presence, absence and intensity of convulsions) were examined 1, 3, 6, 12, 24, 48, 72, and 96 hours after the start of tick exposure to the compound.
# [1] = adult ticks, 1 h, read-out: average percentage of adult tick mortality (moribund or dead adult ticks)
# [2] = adult ticks, 3 h, read-out: average percentage of adult tick mortality (moribund or dead adult ticks)
# [3] = adult ticks, 6 h, read-out: average percentage of adult tick mortality (moribund or dead adult ticks)
# [4] = adult ticks, 12 h, read-out: average percentage of adult tick mortality (moribund or dead adult ticks)
# [5] = adult ticks, 24 h, read-out: average percentage of adult tick mortality (moribund or dead adult ticks)
# [6] = adult ticks, 48 h, read-out: average percentage of adult tick mortality (moribund or dead adult ticks)
# [7] = adult ticks, 72 h, read-out: average percentage of adult tick mortality (moribund or dead adult ticks)
# [8] = adult ticks, 96 h, read-out: average percentage of adult tick mortality (moribund or dead adult ticks)
# [9] = nymphs, 1 h, read-out: average percentage of mortality of tick nymphs (moribund or dead nymphs)
# [10] = nymphs, 3 h, read-out: average percentage of mortality of tick nymphs (moribund or dead nymphs)
# [11] = nymphs, 6 h, read-out: average percentage of mortality of tick nymphs (moribund or dead nymphs)
# [12] = nymphs, 12 h, read-out: average percentage of mortality of tick nymphs (moribund or dead nymphs)
# [13] = nymphs, 24 h, read-out: average percentage of mortality of tick nymphs (moribund or dead nymphs)
# [14] = nymphs, 48 h, read-out: average percentage of mortality of tick nymphs (moribund or dead nymphs)
# [15] = nymphs, 72 h, read-out: average percentage of mortality of tick nymphs (moribund or dead nymphs)
# [16] = nymphs, 96 h, read-out: average percentage of mortality of tick nymphs (moribund or dead nymphs)
smiles,measurement,setting,value
Cc1cccc(C(C)c2cnc[nH]2)c1C (racemic) [Medetomidine hydrochloride],effect in terms of tick detachment (in words),"1, 10, 100 ppm, nymphs and adults",very limited effect
same,mortality at 1 ppm,[1],0%
same,mortality at 1 ppm,[2],0%
same,mortality at 1 ppm,[3],2.3%
same,mortality at 1 ppm,[4],7.3%
same,mortality at 1 ppm,[5],47.6%
same,mortality at 1 ppm,[6],97.7%
same,mortality at 1 ppm,[7],100%
same,mortality at 1 ppm,[8],100%
same,mortality at 10 ppm,[1],0%
same,mortality at 10 ppm,[2],0%
same,mortality at 10 ppm,[3],9.6%
same,mortality at 10 ppm,[4],9.6%
same,mortality at 10 ppm,[5],53.9%
same,mortality at 10 ppm,[6],91.2%
same,mortality at 10 ppm,[7],100%
same,mortality at 10 ppm,[8],100%
same,mortality at 100 ppm,[1],0%
same,mortality at 100 ppm,[2],0%
same,mortality at 100 ppm,[3],12.5%
same,mortality at 100 ppm,[4],18.1%
same,mortality at 100 ppm,[5],53.1%
same,mortality at 100 ppm,[6],84.7%
same,mortality at 100 ppm,[7],93.8%
same,mortality at 100 ppm,[8],100%
same,mortality at 1 ppm,[9],0%
same,mortality at 1 ppm,[10],0%
same,mortality at 1 ppm,[11],19.5%
same,mortality at 1 ppm,[12],38.9%
same,mortality at 1 ppm,[13],61.8%
same,mortality at 1 ppm,[14],93.9%
same,mortality at 1 ppm,[15],100%
same,mortality at 1 ppm,[16],100%
same,mortality at 10 ppm,[9],0%
same,mortality at 10 ppm,[10],10.4%
same,mortality at 10 ppm,[11],38.4%
same,mortality at 10 ppm,[12],58.5%
same,mortality at 10 ppm,[13],78.7%
same,mortality at 10 ppm,[14],85%
same,mortality at 10 ppm,[15],95.8%
same,mortality at 10 ppm,[16],100%
same,mortality at 100 ppm,[9],0%
same,mortality at 100 ppm,[10],9.1%
same,mortality at 100 ppm,[11],38.5%
same,mortality at 100 ppm,[12],69.2%
same,mortality at 100 ppm,[13],94.4%
same,mortality at 100 ppm,[14],100%
same,mortality at 100 ppm,[15],100%
same,mortality at 100 ppm,[16],100%
same,"ticks affected (convulsion, morbidity or death of ticks)","from 1 hour of exposure, regardless of the concentration tested (1, 10, 100 ppm)",100%
